From patent US20100004234A1, “SPECIFIC KINASE INHIBITORS” (Kosan Biosciences Incorporated, priority 2004, published 2010)

What was measured:
Assay in all cases: Kinase panel, residual activity
Type in all cases: biochemical
Conditions in all cases: read-out: Percent residual activity
Abl(T315I)(h) = Abl(T315I)(h) (Homo sapiens, UniProt P00519, T315I)
Protocol: (§1) In this panel of 124 kinases, 18 of the 19 kinases identified as having an active site cysteine were inhibited to some extent by hypothemycin at a concentration of 0.2 μM and/or 2 μM.

Arg(h) = Arg(h) (Homo sapiens, UniProt P42684)
Protocol: as §1

BRK(h) = BRK(h) (Homo sapiens, UniProt Q13882)
Protocol: as §1

CDK2/cyclinA(h) = CDK2/cyclinA(h) (Homo sapiens, UniProt P24941)
Protocol: as §1

CHK1(h) = CHK1(h) (Homo sapiens, UniProt O14757)
Protocol: as §1

CaMKIV(h) = CaMKIV(h) (Homo sapiens, UniProt Q16566)
Protocol: as §1

FGFR1(h) = FGFR1(h) (Homo sapiens, UniProt P11362)
Protocol: as §1

Fer(h) = Fer(h) (Homo sapiens, UniProt P16591)
Protocol: as §1

Fgr(h) = Fgr(h) (Homo sapiens, UniProt P09769)
Protocol: as §1

Fms(h) = Fms(h) (Homo sapiens, UniProt P07333)
Protocol: as §1

GSK3α(h) = GSK3α(h) (Homo sapiens, UniProt P49840)
Protocol: as §1

Hck(h) = Hck(h) (Homo sapiens, UniProt P08631)
Protocol: as §1

IKKα(h) = IKKα(h) (Homo sapiens, UniProt O15111)
Protocol: as §1

IKKβ(h) = IKKβ(h) (Homo sapiens, UniProt O14920)
Protocol: as §1

JNK3(h) = JNK3(h) (Homo sapiens, UniProt P53779)
Protocol: as §1

Lck(h) = Lck(h) (Homo sapiens, UniProt P06239)
Protocol: as §1

MSK1(h) = MSK1(h) (Homo sapiens, UniProt O75582)
Protocol: as §1

MST2(h) = MST2(h) (Homo sapiens, UniProt Q13188)
Protocol: as §1

Met(h) = Met(h) (Homo sapiens, UniProt P08581)
Protocol: as §1

NEK2(h) = NEK2(h) (Homo sapiens, UniProt P51955)
Protocol: as §1

PAR-1Bα(h) = PAR-1Bα(h) (Homo sapiens, UniProt Q7KZI7)
Protocol: as §1

PDGFRβ(h) = PDGFRβ(h) (Homo sapiens, UniProt P09619)
Protocol: as §1

PDK1(h) = PDK1(h) (Homo sapiens, UniProt O15530)
Protocol: as §1

PKBβ(h) = PKBβ(h) (Homo sapiens, UniProt P31751)
Protocol: as §1

PKCγ(h) = PKCγ(h) (Homo sapiens, UniProt P05129)
Protocol: as §1

PKCθ(h) = PKCθ(h) (Homo sapiens, UniProt Q04759)
Protocol: as §1

Pyk2(h) = Pyk2(h) (Homo sapiens, UniProt Q14289)
Protocol: as §1

RIPK2(h) = RIPK2(h) (Homo sapiens, UniProt O43353)
Protocol: as §1

ROCK-II(h) = ROCK-II(h) (Homo sapiens, UniProt O75116)
Protocol: as §1

Ret(h) = Ret(h) (Homo sapiens, UniProt P07949)
Protocol: as §1

Rse(h) = Rse(h) (Homo sapiens, UniProt Q06418)
Protocol: as §1

Rsk1(h) = Rsk1(h) (Homo sapiens, UniProt Q15418)
Protocol: as §1

SAPK4(h) = SAPK4(h) (Homo sapiens, UniProt O15264)
Protocol: as §1

TAK1(h) = TAK1(h) (Homo sapiens, UniProt O43318)
Protocol: as §1

ZIPK(h) = ZIPK(h) (Homo sapiens, UniProt O43293)
Protocol: as §1

c-RAF(h) = c-RAF(h) (Homo sapiens, UniProt P04049)
Protocol: as §1

cKit(D816V)(h) = cKit(D816V)(h) (Homo sapiens, UniProt P10721, D816V)
Protocol: as §1

Chain of GSK3α(h) (P49840 whole entry): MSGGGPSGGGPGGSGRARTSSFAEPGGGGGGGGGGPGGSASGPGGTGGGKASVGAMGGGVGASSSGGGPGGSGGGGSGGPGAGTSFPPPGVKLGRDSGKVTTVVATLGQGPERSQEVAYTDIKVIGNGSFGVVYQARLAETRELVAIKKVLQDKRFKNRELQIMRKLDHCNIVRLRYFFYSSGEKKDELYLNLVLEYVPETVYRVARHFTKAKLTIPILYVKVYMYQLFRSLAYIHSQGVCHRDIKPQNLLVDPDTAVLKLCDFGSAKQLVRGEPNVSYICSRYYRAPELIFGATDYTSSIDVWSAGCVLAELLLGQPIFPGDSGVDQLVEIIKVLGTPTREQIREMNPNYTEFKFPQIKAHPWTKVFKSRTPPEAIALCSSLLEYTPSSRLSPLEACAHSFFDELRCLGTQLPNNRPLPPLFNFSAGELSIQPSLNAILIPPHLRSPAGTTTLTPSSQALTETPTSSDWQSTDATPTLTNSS
Chain of TAK1(h) (O43318 1-303 limits assumed): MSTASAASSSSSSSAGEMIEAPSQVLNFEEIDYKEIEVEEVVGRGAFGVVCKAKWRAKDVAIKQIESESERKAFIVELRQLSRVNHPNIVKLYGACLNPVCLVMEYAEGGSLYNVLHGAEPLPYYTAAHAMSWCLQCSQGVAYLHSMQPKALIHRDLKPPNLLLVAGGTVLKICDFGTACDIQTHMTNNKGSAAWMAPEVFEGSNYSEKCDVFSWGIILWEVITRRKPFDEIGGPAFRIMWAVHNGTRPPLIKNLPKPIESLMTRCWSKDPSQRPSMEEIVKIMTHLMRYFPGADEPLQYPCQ
Chain of TAK1(h) (Q15750 437-504 partner limits assumed): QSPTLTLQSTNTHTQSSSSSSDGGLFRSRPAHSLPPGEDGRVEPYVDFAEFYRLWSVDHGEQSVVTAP
Chain of IKKβ(h) (O14920 whole entry): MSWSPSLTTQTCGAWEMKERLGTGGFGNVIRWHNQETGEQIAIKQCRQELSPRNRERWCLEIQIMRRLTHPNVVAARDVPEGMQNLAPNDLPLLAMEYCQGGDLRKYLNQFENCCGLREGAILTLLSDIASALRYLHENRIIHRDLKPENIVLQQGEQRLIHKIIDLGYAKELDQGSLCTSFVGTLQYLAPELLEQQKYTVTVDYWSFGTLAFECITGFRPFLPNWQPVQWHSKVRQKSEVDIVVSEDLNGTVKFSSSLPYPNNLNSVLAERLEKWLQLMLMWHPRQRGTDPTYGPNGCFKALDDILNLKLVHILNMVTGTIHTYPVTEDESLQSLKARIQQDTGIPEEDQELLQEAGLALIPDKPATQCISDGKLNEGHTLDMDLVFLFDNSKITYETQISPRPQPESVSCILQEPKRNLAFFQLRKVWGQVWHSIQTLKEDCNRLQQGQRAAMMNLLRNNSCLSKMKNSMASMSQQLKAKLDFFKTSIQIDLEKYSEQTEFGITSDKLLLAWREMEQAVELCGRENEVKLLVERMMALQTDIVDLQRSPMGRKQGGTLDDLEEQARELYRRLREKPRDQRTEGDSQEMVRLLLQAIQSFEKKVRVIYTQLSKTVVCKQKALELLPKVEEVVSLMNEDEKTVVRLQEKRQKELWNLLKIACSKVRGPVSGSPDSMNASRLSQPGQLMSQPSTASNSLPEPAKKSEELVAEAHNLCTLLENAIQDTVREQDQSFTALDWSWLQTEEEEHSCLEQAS
Chain of PDGFRβ(h) (P09619 33-1106): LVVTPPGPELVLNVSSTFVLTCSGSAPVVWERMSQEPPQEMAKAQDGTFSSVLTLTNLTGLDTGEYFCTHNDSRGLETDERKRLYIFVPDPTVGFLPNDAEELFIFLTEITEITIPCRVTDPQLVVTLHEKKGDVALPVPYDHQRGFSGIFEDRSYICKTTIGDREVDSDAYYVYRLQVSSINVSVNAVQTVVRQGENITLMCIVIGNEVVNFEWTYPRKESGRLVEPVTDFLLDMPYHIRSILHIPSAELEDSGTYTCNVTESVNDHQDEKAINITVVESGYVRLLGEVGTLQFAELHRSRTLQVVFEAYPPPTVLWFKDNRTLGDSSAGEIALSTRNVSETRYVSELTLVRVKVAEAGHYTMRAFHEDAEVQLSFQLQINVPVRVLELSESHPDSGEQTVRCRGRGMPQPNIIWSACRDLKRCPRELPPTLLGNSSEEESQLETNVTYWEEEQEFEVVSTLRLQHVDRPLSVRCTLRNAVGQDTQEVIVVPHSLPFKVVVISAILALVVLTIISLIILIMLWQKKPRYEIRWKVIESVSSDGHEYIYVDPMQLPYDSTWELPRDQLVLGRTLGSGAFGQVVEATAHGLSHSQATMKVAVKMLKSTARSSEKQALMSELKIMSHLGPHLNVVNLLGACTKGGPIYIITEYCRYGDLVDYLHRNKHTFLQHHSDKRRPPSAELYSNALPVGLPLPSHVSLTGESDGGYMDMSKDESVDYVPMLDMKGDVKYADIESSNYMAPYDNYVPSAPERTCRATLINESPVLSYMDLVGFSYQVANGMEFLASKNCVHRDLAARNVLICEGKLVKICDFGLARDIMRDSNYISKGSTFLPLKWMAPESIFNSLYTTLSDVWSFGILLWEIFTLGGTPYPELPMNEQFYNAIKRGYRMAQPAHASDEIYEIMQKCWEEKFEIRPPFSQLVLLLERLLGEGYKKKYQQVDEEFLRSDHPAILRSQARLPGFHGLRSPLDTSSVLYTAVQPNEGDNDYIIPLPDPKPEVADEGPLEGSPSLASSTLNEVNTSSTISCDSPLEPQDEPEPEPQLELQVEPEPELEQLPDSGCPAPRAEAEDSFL
Chain of Fms(h) (P07333 20-972): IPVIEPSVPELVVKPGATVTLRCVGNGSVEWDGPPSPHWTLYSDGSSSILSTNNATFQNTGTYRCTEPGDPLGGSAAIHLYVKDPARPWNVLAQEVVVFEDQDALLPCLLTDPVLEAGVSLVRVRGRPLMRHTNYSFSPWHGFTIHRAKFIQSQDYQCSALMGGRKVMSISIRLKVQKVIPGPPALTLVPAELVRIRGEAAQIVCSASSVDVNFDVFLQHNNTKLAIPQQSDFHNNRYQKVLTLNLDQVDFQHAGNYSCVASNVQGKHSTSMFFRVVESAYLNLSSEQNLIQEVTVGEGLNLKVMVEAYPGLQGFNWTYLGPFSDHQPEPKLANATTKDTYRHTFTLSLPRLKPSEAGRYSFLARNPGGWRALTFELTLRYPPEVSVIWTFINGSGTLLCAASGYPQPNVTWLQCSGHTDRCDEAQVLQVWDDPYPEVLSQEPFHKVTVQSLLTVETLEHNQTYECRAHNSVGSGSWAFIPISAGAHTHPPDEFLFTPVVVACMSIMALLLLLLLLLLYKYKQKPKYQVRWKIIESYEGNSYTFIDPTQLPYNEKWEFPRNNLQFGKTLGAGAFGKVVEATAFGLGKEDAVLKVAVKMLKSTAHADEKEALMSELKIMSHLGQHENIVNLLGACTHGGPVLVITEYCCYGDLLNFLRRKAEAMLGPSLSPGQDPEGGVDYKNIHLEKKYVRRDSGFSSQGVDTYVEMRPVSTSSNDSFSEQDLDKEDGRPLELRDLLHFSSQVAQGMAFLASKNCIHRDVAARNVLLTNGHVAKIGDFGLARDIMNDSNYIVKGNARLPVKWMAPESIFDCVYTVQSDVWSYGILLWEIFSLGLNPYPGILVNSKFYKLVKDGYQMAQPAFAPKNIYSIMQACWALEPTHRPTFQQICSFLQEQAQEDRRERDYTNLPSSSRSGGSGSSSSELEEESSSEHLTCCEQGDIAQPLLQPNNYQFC
Chain of cKit(D816V)(h) (P10721 26-976 D816V): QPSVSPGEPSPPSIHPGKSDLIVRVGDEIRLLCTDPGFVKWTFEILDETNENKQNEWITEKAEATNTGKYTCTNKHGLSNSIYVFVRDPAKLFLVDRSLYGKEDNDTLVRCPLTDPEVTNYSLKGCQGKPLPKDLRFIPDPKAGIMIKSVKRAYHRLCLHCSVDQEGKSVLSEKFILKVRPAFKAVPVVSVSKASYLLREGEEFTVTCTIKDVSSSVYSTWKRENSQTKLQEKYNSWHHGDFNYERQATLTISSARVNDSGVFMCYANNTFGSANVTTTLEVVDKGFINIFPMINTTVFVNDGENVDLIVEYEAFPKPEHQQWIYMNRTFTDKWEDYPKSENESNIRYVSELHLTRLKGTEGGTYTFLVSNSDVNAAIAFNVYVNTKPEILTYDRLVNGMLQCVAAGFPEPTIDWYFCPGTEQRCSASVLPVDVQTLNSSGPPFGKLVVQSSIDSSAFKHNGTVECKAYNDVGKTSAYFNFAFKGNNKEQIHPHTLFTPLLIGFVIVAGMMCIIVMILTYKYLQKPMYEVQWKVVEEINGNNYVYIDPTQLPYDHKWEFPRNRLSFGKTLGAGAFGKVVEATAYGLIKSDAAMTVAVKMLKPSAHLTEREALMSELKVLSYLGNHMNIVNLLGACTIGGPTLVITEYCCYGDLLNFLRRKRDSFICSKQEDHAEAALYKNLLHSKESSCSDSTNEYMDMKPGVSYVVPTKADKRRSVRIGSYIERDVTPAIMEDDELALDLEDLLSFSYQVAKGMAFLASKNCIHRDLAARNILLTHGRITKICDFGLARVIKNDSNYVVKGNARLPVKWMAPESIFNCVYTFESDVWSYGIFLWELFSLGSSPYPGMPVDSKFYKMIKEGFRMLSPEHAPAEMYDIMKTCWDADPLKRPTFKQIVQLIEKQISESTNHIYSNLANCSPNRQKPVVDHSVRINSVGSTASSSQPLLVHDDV
Chain of BRK(h) (Q13882 whole entry): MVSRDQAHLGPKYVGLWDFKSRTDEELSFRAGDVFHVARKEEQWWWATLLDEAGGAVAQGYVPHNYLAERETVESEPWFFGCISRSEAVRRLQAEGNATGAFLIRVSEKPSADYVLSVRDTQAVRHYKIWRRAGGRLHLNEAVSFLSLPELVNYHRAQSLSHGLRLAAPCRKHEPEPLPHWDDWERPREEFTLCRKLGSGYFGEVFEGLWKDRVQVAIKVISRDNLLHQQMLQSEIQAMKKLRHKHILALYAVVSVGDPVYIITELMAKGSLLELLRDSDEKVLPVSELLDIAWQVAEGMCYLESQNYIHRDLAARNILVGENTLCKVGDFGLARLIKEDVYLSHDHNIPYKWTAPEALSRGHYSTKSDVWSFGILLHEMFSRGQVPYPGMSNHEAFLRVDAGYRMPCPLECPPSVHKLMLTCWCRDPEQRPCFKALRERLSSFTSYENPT

COc1cc(O)c2c(c1)[C@H]1O[C@@H]1C[C@H](O)[C@H](O)C(=O)/C=C\C[C@H](C)OC2=O [Hypothemycin, hypothemycin]
remaining activity at 0.2 µM (Abl(T315I)(h)): 90% | remaining activity at 0.2 µM (Arg(h)): 98% | remaining activity at 0.2 µM (BRK(h)): 89% | remaining activity at 0.2 µM (CDK2/cyclinA(h); 0.2 μM): 634% | remaining activity at 2 µM (CDK2/cyclinA(h); 2.0 μM): 106% | remaining activity at 0.2 µM (CHK1(h)): 94% | remaining activity at 0.2 µM (CaMKIV(h)): 102% | remaining activity at 0.2 µM (FGFR1(h)): 99% | remaining activity at 0.2 µM (Fer(h)): 102% | remaining activity at 0.2 µM (Fgr(h)): 100% | remaining activity at 0.2 µM (Fms(h); 0.2 μM): 91% | remaining activity at 2 µM (Fms(h); 2.0 μM): 90% | remaining activity at 0.2 µM (GSK3α(h); 0.2 μM): 90% | remaining activity at 2 µM (GSK3α(h); 2.0 μM): 88% | remaining activity at 0.2 µM (Hck(h); 0.2 μM): 78% | remaining activity at 2 µM (Hck(h); 2.0 μM): 91% | remaining activity at 0.2 µM (IKKα(h)): 101% | remaining activity at 0.2 µM (IKKβ(h); 0.2 μM): 81% | remaining activity at 2 µM (IKKβ(h); 2.0 μM): 94% | remaining activity at 0.2 µM (JNK3(h)): 76% | remaining activity at 0.2 µM (Lck(h)): 98% | remaining activity at 0.2 µM (MSK1(h)): 87% | remaining activity at 0.2 µM (MST2(h)): 94% | remaining activity at 0.2 µM (Met(h)): 96% | remaining activity at 0.2 µM (NEK2(h)): 99% | remaining activity at 0.2 µM (PAR-1Bα(h)): 93% | remaining activity at 0.2 µM (PDGFRβ(h); 0.2 μM): 73% | remaining activity at 2 µM (PDGFRβ(h); 2.0 μM): 40% | remaining activity at 0.2 µM (PDK1(h)): 93% | remaining activity at 0.2 µM (PKBβ(h)): 91% | remaining activity at 0.2 µM (PKCγ(h)): 98% | remaining activity at 0.2 µM (PKCθ(h)): 104% | remaining activity at 0.2 µM (Pyk2(h)): 84% | remaining activity at 0.2 µM (RIPK2(h)): 101% | remaining activity at 0.2 µM (ROCK-II(h)): 104% | remaining activity at 0.2 µM (Ret(h)): 104% | remaining activity at 0.2 µM (Rse(h)): 90% | remaining activity at 0.2 µM (Rsk1(h)): 100% | remaining activity at 0.2 µM (SAPK4(h)): 101% | remaining activity at 0.2 µM (TAK1(h); 0.2 μM): 12% | remaining activity at 2 µM (TAK1(h); 2.0 μM): 5% | remaining activity at 0.2 µM (ZIPK(h)): 96% | remaining activity at 0.2 µM (c-RAF(h)): 103% | remaining activity at 0.2 µM (cKit(D816V)(h); 0.2 μM): 57% | remaining activity at 2 µM (cKit(D816V)(h); 2.0 μM): 0%
